{"source": "patent US20260130933A1", "about": "“PHARMACEUTICAL COMPOSITION FOR PREVENTION OR TREATMENT OF NEPHROPATHY AND/OR DIABETES MELLITUS, COMPRISING ENAVOGLIFLOZIN” (DAEWOONG PHARMACEUTICAL CO., LTD., priority 2022, published 2026)", "assay": "Example 3: phase 3 trial, enavogliflozin 0.3 mg vs dapagliflozin 10 mg once a day for 24 weeks added to metformin and gemigliptin in patients with type 2 diabetes (same endpoints, rescue drug)", "assay_type": "in vivo, human", "conditions": "week 6", "experimental": "1) when Metformin (≥1,000 mg/Day) was Administered at a Constant Dose for at Least 8 Weeks Prior to Pre-Visit (Pre-Screening) • Metformin (≥1,000 mg/day) and gemigliptin (50 mg/day) were co-administered during the 8-week stabilization period. […] 4) when Metformin (≥1,000 mg/Day) and Gemigliptin (50 mg/Day) were Co-Administered at Constant Doses for at Least 8 Weeks Prior to Pre-Visit (Prescreening) • Without a separate stabilization period, Pre-visit (pre-screening) was Visit 1 (screening).\nSubjects who met the inclusion/exclusion criteria continued to receive metformin and gemigliptin while receiving a placebo of the clinical trial drug in a single-blind (subject-blinded) state for a 2-week run-in period.\nHere, the randomized subjects were stratified according to the administration therapy (co-administration with two or less agents (one or two agents) or three or more agents) of a conventional hypoglycemic agent (before washout of another hypoglycemic agent) within 24 weeks prior to obtaining written informed consent and by an HbA1c value (<8% or ≥8%) at Visit 1 (screening) measured in the central laboratory.\nThe randomized subjects were administered two tablets of the clinical trial drug corresponding to each administration group once a day, and then visited the institution at weeks 6, 12, 18, and 24 during the 24-week administration period to conduct efficacy and safety assessments. In addition, during the clinical trial period, they were instructed to exercise regularly and control their diet without changing their daily life patterns.\n• 1) Change in HbA1c at week 24 after administration of clinical trial drug compared to Visit 2 (randomization)\n• 1) Change in HbA1c at each time point of weeks 6, 12, and 18 after administration of clinical trial drug compared to Visit 2 (randomization) • 2) Change in FPG at each time point of weeks 6, 12, 18, and 24 after administration of clinical trial drug compared to Visit 2 (randomization) • 3) Proportion of subjects achieving HbA1c<7% at each time point of weeks 6, 12, 18, and 24 after administration of clinical trial drug • 4) Proportion of subjects achieving HbA1c<6.5% at each time point of weeks 6, 12, 18, and 24 after administration of clinical trial drug • 5) Proportion of subjects achieving therapeutic response (HbA1c change (HbA1c at Visit 2—HbA1c at each evaluation time point)>0.5% or HbA1c<7% at each evaluation time point compared to Visit 2 (randomization)) at each time point of weeks 6, 12, 18, and 24 after administration of clinical trial drug • 6) Proportion of subjects achieving therapeutic response (HbA1c change (HbA1c at Visit 2—HbA1c at each evaluation time point)>0.7% or HbA1c<7% at each evaluation time point compared to Visit 2 (randomization)) at each time point of weeks 6, 12, 18, and 24 after administration of clinical trial drug • 7) Proportion of subjects achieving therapeutic response (HbA1c change (HbA1c at Visit 2—HbA1c at each evaluation time point)>1% or HbA1c<7% at each evaluation time point compared to Visit 2 (randomization)) at each time point of weeks 6, 12, 18, and 24 after administration of clinical trial drug", "key": {"[1]": {"conditions": "modified per-protocol set 2, enavogliflozin 0.3 mg, dapagliflozin 10 mg"}, "[2]": {"conditions": "per-protocol set, enavogliflozin 0.3 mg vs dapagliflozin 10 mg"}, "[3]": {"conditions": "per-protocol set, enavogliflozin 0.3 mg, dapagliflozin 10 mg"}}, "data": [{"smiles": "OC[C@H]1O[C@@H](c2cc(Cc3ccc(C4CC4)cc3)c(Cl)c3c2CCO3)[C@H](O)[C@@H](O)[C@@H]1O", "note": "[Enavogliflozin, (2S,3R,4R,5S,6R)-2-(7-chloro-6 (4-cyclopropylbenzyl)-2,3-dihydrobenzofuran-4-yl)-6-(hydroxymethyl)tetrahydro-2H-pyran-3,4,5-triol]", "values": [{"measurement": "Change from baseline in diastolic blood pressure, ANCOVA LS mean", "setting": "modified per-protocol set 2", "value": "−2.04", "unit": "mmHg"}, {"measurement": "Change from baseline in diastolic blood pressure, LS mean difference (enavogliflozin − dapagliflozin)", "setting": "modified per-protocol set 2", "value": "−0.16", "unit": "mmHg"}, {"measurement": "Change from baseline in diastolic blood pressure, Mean", "setting": "modified per-protocol set 2", "value": "−2.76", "unit": "mmHg"}, {"measurement": "Change from baseline in diastolic blood pressure, Median", "setting": "modified per-protocol set 2", "value": "−3.00", "unit": "mmHg"}, {"measurement": "Diastolic blood pressure, Mean", "setting": "modified per-protocol set 2", "value": 73.72, "unit": "mmHg"}, {"measurement": "Diastolic blood pressure, Median", "setting": "modified per-protocol set 2", "value": 74.00, "unit": "mmHg"}, {"measurement": "Change from baseline in systolic blood pressure, ANCOVA LS mean difference", "setting": "modified per-protocol set 2, enavogliflozin 0.3 mg vs dapagliflozin 10 mg", "value": 0.73, "unit": "mmHg"}, {"measurement": "Change from baseline in systolic blood pressure, ANCOVA LS mean", "setting": "[1]", "value": "−2.76", "unit": "mmHg"}, {"measurement": "Change from baseline in systolic blood pressure, Mean", "setting": "[1]", "value": "−3.67", "unit": "mmHg"}, {"measurement": "Change from baseline in systolic blood pressure, Median", "setting": "[1]", "value": "−3.00", "unit": "mmHg"}, {"measurement": "Systolic blood pressure, Mean", "setting": "[1]", "value": 124.04, "unit": "mmHg"}, {"measurement": "Systolic blood pressure, Median", "setting": "[1]", "value": 123.00, "unit": "mmHg"}, {"measurement": "Adiponectin, Mean", "setting": "per-protocol set", "value": 6.20, "unit": "µg/mL"}, {"measurement": "Adiponectin, Median", "setting": "per-protocol set", "value": 5.40, "unit": "µg/mL"}, {"measurement": "Change from baseline in HOMA-IR, ANCOVA LS mean", "setting": "per-protocol set", "value": "−0.94"}, {"measurement": "Change from baseline in HOMA-IR, LS mean difference (enavogliflozin − dapagliflozin)", "setting": "per-protocol set", "value": 0.05}, {"measurement": "Change from baseline in HOMA-IR, Mean", "setting": "per-protocol set", "value": "−0.90"}, {"measurement": "Change from baseline in HOMA-IR, Median", "setting": "per-protocol set", "value": "−0.68"}, {"measurement": "Change from baseline in HOMA-β, ANCOVA LS mean", "setting": "per-protocol set", "value": 8.13}, {"measurement": "Change from baseline in HOMA-β, LS mean difference (enavogliflozin − dapagliflozin)", "setting": "per-protocol set", "value": 4.93}, {"measurement": "Change from baseline in HOMA-β, Mean", "setting": "per-protocol set", "value": 8.74}, {"measurement": "Change from baseline in HOMA-β, Median", "setting": "per-protocol set", "value": 4.35}, {"measurement": "Change from baseline in UACR, ANCOVA LS mean", "setting": "per-protocol set", "value": -8.76, "unit": "g/kg"}, {"measurement": "Change from baseline in UACR, LS mean difference (enavogliflozin − dapagliflozin)", "setting": "per-protocol set", "value": 6.09, "unit": "g/kg"}, {"measurement": "Change from baseline in UACR, Mean", "setting": "per-protocol set", "value": -11.43, "unit": "g/kg"}, {"measurement": "Change from baseline in UACR, Median", "setting": "per-protocol set", "value": -0.50, "unit": "g/kg"}, {"measurement": "Change from baseline in UGCR, ANCOVA LS mean", "setting": "per-protocol set", "value": 58.10, "unit": "mg/mg"}, {"measurement": "Change from baseline in UGCR, LS mean difference (enavogliflozin − dapagliflozin)", "setting": "per-protocol set", "value": 12.35, "unit": "mg/mg"}, {"measurement": "Change from baseline in UGCR, Mean", "setting": "per-protocol set", "value": 56.38, "unit": "mg/mg"}, {"measurement": "Change from baseline in UGCR, Median", "setting": "per-protocol set", "value": 54.10, "unit": "mg/mg"}, {"measurement": "Change from baseline in adiponectin, ANCOVA LS mean", "setting": "per-protocol set", "value": -0.10, "unit": "µg/mL"}, {"measurement": "Change from baseline in adiponectin, LS mean difference (enavogliflozin − dapagliflozin)", "setting": "per-protocol set", "value": -0.47, "unit": "µg/mL"}, {"measurement": "Change from baseline in adiponectin, Mean", "setting": "per-protocol set", "value": -0.08, "unit": "µg/mL"}, {"measurement": "Change from baseline in adiponectin, Median", "setting": "per-protocol set", "value": 0.50, "unit": "µg/mL"}, {"measurement": "Change from baseline in leptin, ANCOVA LS mean", "setting": "per-protocol set", "value": -1.83, "unit": "ng/mL"}, {"measurement": "Change from baseline in leptin, LS mean difference (enavogliflozin − dapagliflozin)", "setting": "per-protocol set", "value": 0.20, "unit": "ng/mL"}, {"measurement": "Change from baseline in leptin, Mean", "setting": "per-protocol set", "value": -1.75, "unit": "ng/mL"}, {"measurement": "Change from baseline in leptin, Median", "setting": "per-protocol set", "value": -0.94, "unit": "ng/mL"}, {"measurement": "HOMA-IR (insulin resistance), Mean", "setting": "per-protocol set", "value": 2.00}, {"measurement": "HOMA-IR (insulin resistance), Median", "setting": "per-protocol set", "value": 1.54}, {"measurement": "HOMA-β (beta-cell function), Mean", "setting": "per-protocol set", "value": 51.08}, {"measurement": "HOMA-β (beta-cell function), Median", "setting": "per-protocol set", "value": 38.70}, {"measurement": "Leptin, Mean", "setting": "per-protocol set", "value": 8.88, "unit": "ng/mL"}, {"measurement": "Leptin, Median", "setting": "per-protocol set", "value": 6.26, "unit": "ng/mL"}, {"measurement": "UACR, Mean", "setting": "per-protocol set", "value": 36.67, "unit": "g/kg"}, {"measurement": "UACR, Median", "setting": "per-protocol set", "value": 14.80, "unit": "g/kg"}, {"measurement": "UGCR, Mean", "setting": "per-protocol set", "value": 57.09, "unit": "mg/mg"}, {"measurement": "UGCR, Median", "setting": "per-protocol set", "value": 54.57, "unit": "mg/mg"}, {"measurement": "Achieving HbA1c target of <6.5%, odds ratio (logistic regression model)", "setting": "[2]", "value": 0.65}, {"measurement": "Achieving HbA1c target of <7%, odds ratio (logistic regression model)", "setting": "[2]", "value": 1.22}, {"measurement": "Change from baseline in FPG, ANCOVA LS mean difference", "setting": "[2]", "value": -3.24, "unit": "mg/dL"}, {"measurement": "Change from baseline in HbA1c, ANCOVA LS mean difference", "setting": "[2]", "value": "−0.03", "unit": "% p"}, {"measurement": "Change from baseline in body weight, ANCOVA LS mean difference", "setting": "[2]", "value": -0.13, "unit": "kg"}, {"measurement": "Change from baseline in fasting C-peptide, ANCOVA LS mean difference", "setting": "[2]", "value": -0.01, "unit": "ng/mL"}, {"measurement": "Therapeutic glycemic response 1, odds ratio (logistic regression model)", "setting": "[2]", "value": 1.52}, {"measurement": "Therapeutic glycemic response 2, odds ratio (logistic regression model)", "setting": "[2]", "value": 1.16}, {"measurement": "Therapeutic glycemic response 3, odds ratio (logistic regression model)", "setting": "[2]", "value": 1.38}, {"measurement": "Body weight, Mean", "setting": "[3]", "value": 67.13, "unit": "kg"}, {"measurement": "Change from baseline in FPG, ANCOVA LS mean", "setting": "[3]", "value": -25.96, "unit": "mg/dL"}, {"measurement": "Change from baseline in FPG, Mean", "setting": "[3]", "value": -25.72, "unit": "mg/dL"}, {"measurement": "Change from baseline in FPG, Median", "setting": "[3]", "value": -24.50, "unit": "mg/dL"}, {"measurement": "Change from baseline in HbA1c, ANCOVA LS mean", "setting": "[3]", "value": "−0.73", "unit": "% p"}, {"measurement": "Change from baseline in HbA1c, Mean", "setting": "[3]", "value": "−0.74", "unit": "% p"}, {"measurement": "Change from baseline in HbA1c, Median", "setting": "[3]", "value": "−0.65", "unit": "% p"}, {"measurement": "Change from baseline in body weight, ANCOVA LS mean", "setting": "[3]", "value": -1.92, "unit": "kg"}, {"measurement": "Change from baseline in body weight, Mean", "setting": "[3]", "value": -1.87, "unit": "kg"}, {"measurement": "Change from baseline in body weight, Median", "setting": "[3]", "value": -1.90, "unit": "kg"}, {"measurement": "Change from baseline in fasting C-peptide, ANCOVA LS mean", "setting": "[3]", "value": -0.05, "unit": "ng/mL"}, {"measurement": "Change from baseline in fasting C-peptide, Mean", "setting": "[3]", "value": -0.06, "unit": "ng/mL"}, {"measurement": "Change from baseline in fasting C-peptide, Median", "setting": "[3]", "value": -0.07, "unit": "ng/mL"}, {"measurement": "FPG, Mean", "setting": "[3]", "value": 114.21, "unit": "mg/dL"}, {"measurement": "FPG, Median", "setting": "[3]", "value": 113.00, "unit": "mg/dL"}]}]}
